Assay results from patent US20240325298A1, “COMPOSITIONS, METHODS AND SYSTEMS FOR AEROSOL DRUG DELIVERY” (AstraZeneca Pharmaceuticals LP, priority 2021, published 2024).

Key:
[1] = Particle size distribution by laser diffraction (optical diameter); format: physicochemical
From the text: When referred to herein, the term “optical diameter” indicates the size of a particle as measured by the Fraunhofer diffraction mode using a laser diffraction particle size analyzer equipped with a dry powder dispenser (e.g., Sympatec GmbH, Clasthal-Zellerfeld, Germany).
Suspending particles were manufactured by spray drying an emulsion of PFOB (perfluorooctyl bromide) and water stabilized by DSPC (1,2-Distearoyl-sn-Glycero-3-Phosphocholine). […] The particle size distribution of the suspending particles was determined by laser diffraction.
Active agent particles formed of budesonide, 16,17-(butylidenebis(oxy))-11,21-dihydroxy-(11-β,16-α)-pregna-1,4-diene-3,20-dione, were formed by micronizing budesonide using a jet mill. The particle size distribution of the budesonide (BD) was determined by laser diffraction.

[2] = NGI aerosol performance stability data after storage of the MDI (valve down, protected); format: physicochemical; conditions: stored valve down and protected at 25° C./60% RH
[3] = budesonide/formoterol co-suspension in HFO-1234ze(E)

| Molecule | optical diameter that 50% by volume of the particles are smaller than [1] | optical diameter that 90% by volume of the particles are smaller than [1] | stability of the aPSD ([2]; budesonide/albuterol co-suspension in HFO-1234ze(E)) | stability of the aPSD [2, 3] |
| --- | --- | --- | --- | --- |
| C[N+]1(C)CCC(OC(=O)C(O)(c2ccccc2)C2CCCC2)C1.[Br-] (stereo not drawn) [glycopyrrolate, Pyrrolidinium, 3-((cyclopentylhydroxyphenylacetyl)oxy)-1,1-dimethyl-, bromide] | smaller than 2.1 μm | smaller than 5 μm | – | – |
| COc1ccc(CC(C)NCC(O)c2ccc(O)c(NC=O)c2)cc1.O=C(O)/C=C/C(=O)O (racemic) [formoterol fumarate, (±)-2-hydroxy-5-[(1RS)-1-hydroxy-2-[[(1RS)-2-(4-methoxyphenyl)-1-methylethyl]-amino]ethyl]formanilide fumarate] | smaller than 1.6 μm | smaller than 3.9 μm | – | – |
| CCCC1O[C@@H]2C[C@H]3[C@@H]4CCC5=CC(=O)C=C[C@]5(C)[C@H]4[C@@H](O)C[C@]3(C)[C@]2(C(=O)CO)O1 (stereo partly drawn) [budesonide, 16,17-(butylidenebis(oxy))-11,21-dihydroxy-(11-β,16-α)-pregna-1,4-diene-3,20-dione] | – | – | stable for twelve months | stable for twelve months |
| albuterol sulfate | smaller than 1.5 μm | smaller than 3.3 μm | – | – |
| CCCCCCCCCCCCCCCCCC(=O)OC[C@H](COP(=O)([O-])OCC[N+](C)(C)C)OC(=O)CCCCCCCCCCCCCCCCC [DSPC, 1,2-Distearoyl-sn-Glycero-3-Phosphocholine] | – | – | – | stable for twelve months |
